Results on two compounds are retold here after EP2626066A1, “Combination therapy comprising selective VEGFR-2 inhibitors and MEK inhibitors” (Max-Planck-Gesellschaft zur Förderung der Wissenschaften …, priority 2012, dated 2013).

For one test, the system named is H1650. The following applies: H1650, very low VEGFR2; daily oral gavage ZD6474 50 mg/kg, PD0325901 12mg/kg; start at about 50mm^3; Fig. 10. Here is the method:
(§1) All animal procedures were approved by the local animal protection committee and the local authorities. H1975, H441 and H1650 cells (5x10^6 cells) were injected subcutaneously into male nude mice. […] Mice were treated daily by oral gavage of ZD6474 (50 mg/kg, solved in vehicle), PD0325901 (12mg/kg, dissolved in propylene glycol:water (1:1)), the combination of ZD6474 (50 mg/kg) and PD0325901 (12mg/kg) or vehicle detergent alone. Tumor size of tumors expressing high levels of VEGFR2 (H441, H1975) and tumor with low expression of VEGFR2 (H1650) were monitored measuring perpendicular diameters.
(§2) All animal procedures were approved by the local animal protection committee and the local authorities. High VEGFR2 expressing tumor cell H1975 and H441 (5x10^6 cells), and very low VEGFR2 expressing cells H1650 (5x10^6 cells) were injected subcutaneously into male nude mice. […] Mice were treated daily by oral gavage of ZD6474 (50 mg/kg, solved in vehicle), PD0325901 (12mg/kg, dissolved in propylene glycol:water (1:1)), the combination of ZD6474 (50 mg/kg) and PD0325901 (12mg/kg) or vehicle detergent alone. Tumor size of tumors expressing high levels of VEGFR2 (H441, H1975) and tumor with low expression of VEGFR2 (H1650) were monitored during treatment measuring perpendicular diameters.

Another test concerns H1975. Here is the method: as §1, §2
For a further test, the system named is H441. The following applies: H441, high VEGFR2; daily oral gavage ZD6474 50 mg/kg, PD0325901 12mg/kg; start at about 50mm^3; Fig. 10. Here is the method:
as §1, §2

The next test deals with H1975 cells. Description: VEGF secretion ELISA assay, H1975 cells. It is filed as cell-based, human. Particulars: H1975 expressing ZD6474 resistance mutation of VEGFR2; in vitro. How it is done:
Cells were either treated with the indicated compounds or DMSO alone. After 4 hours cells were stimulated with 40 ng/ml of VEGF165, or incubated in medium containing DMSO only. Cells were then washed twice with PBS and supplemented with serum-free medium and allowed to secrete VEGF for 48 hours. Secretion of VEGF into cell culture supernatants was measured by Human VEGF Quantikine Kit (R&D Systems) according to manufacturer's instructions.

Molecules are shown by their SMILES.

Turning to `O=C(NOC[C@H](O)CO)c1ccc(F)c(F)c1Nc1ccc(I)cc1F` [PD0325901, N-[(2R)-2,3-dihydroxypropoxy]-3,4-difluoro-2-[(2-fluoro-4-iodophenyl)amino]-benzamide], the tumor volume result with H1650 is reported as “increased alike”; in the test with H1975 (H1975, high VEGFR2, daily oral gavage ZD6474 50 mg/kg, PD0325901 12mg/kg, start at about 50mm^3, Fig. 10), “did not reduce the tumor volume”; in the test with H441, “did not reduce the tumor volume”.
Turning to `COc1cc2c(Nc3ccc(Br)cc3F)ncnc2cc1OCC1CCN(C)CC1` [Vandetanib, N-(4-bromo-2-fluorophenyl)-6-methoxy-7-[(1-methylpiperidin-4-yl)methoxy]quinazolin-4-amine], the “tumor-growth inhibiting effects of the compound” value with H1975 (H1975 expressing ZD6474 resistance mutation of VEGFR2, in vivo, Fig. 1e) is “suppressed”. The “ZD6474-mediated inhibition of VEGF secretion” value in the test on H1975 cells is listed as “abolished”.
